One experiment deals with male rat of SD strain. Description: D-galactosamine-induced necrosis of hepatocytes in rat, plasma AST and ALT. In kind it is in vivo. Conditions: AMS 1.0 g/kg oral in 0.3% CMC 1 hour before D-galactosamine 600 mg/kg i.p., plasma after 24 hours, p<0.05. On the procedure: Action of Aminomethanesulfonic Acid (AMS) to Necrosis of Hepatocytes (Method of Experiment)
A male rat of SD strain of 6 weeks age (150 g) was introduced, subjected to a preliminary breeding by giving CRF-1 (a feed manufactured by Oriental Yeast) and water for six days, fasted for one night and used for the experiment. During the fasting, a 10% aqueous solution of glucose was freely taken by the rat for preventing the lowering of blood-sugar level. D-galactosamine (600 mg/kg) adjusted to pH 6.8 was intraperitoneally administered using a 30% physiological saline solution. After 24 hours from administration of D-galactosamine, 700 μl of blood were collected from subclavian vein under anesthetization with ether and AST (aspartate aminotransferase) and ALT (alanine aminotransferase) in plasma were measured by a Fuji Dry Chem (an automated biochemical measuring apparatus for blood manufactured by Fuji Photo-Film). One hour before the administration of D-galactosamine, AMS was orally administered as a drug to be tested using a 0.3% aqueous solution of carboxymethyl cellulose (CMC).
Group 2: AMS (1.0 g/kg)/0.3% CMC n=8.

Experiment [1] has as its system TNFα production in Kupffer cells. The experiment in a line: LPS-induced TNFα production in rat Kupffer cells (ELISA). The class given is cell-based. Conditions: LPS 10 μg/ml, AMS 0.1 to 3 mM (glycine 0.3 to 30 mM), supernatant after 4 hours, FIG. 1. On the procedure: A male rat of SD strain (body weight: 200-300 g) was subjected to laparotomy under anesthetization with Nembutal, a collagenase solution was perfused from portal vein, then the liver was excised and Kupffer cells were separated by an elutriator method. The Kupffer cells were adjusted to 5×10^5 cells/ml, each 100μ/well thereof were spread on a 96-well microplate and incubation was carried out for 48 hours using E-MEM (Eagle-MEM) and 10% FCS (fetal calf serum) to conduct the experiment. LPS (lipopoly saccharide) (10 μg/ml) and aminomethanesulofonic acid (AMS) or glycine were added at the same time thereto so as to make their concentrations 0.1 to 3 mM or 0.3 to 30 mM, respectively and the amount of TNFα produced in a supernatant liquid after incubation for 4 hours was measured by an ELISA (enzyme-linked immunosorbent assay).
In general terms: ELISA stands for enzyme-linked immunosorbent assay.

SMILES strings stand for the structures.

For the compound `NCS(=O)(=O)O` [aminomethanesulfonic acid], the “rise in ALT in the plasma” value in the experiment with male rat of SD strain (FIG. 2) was “significantly inhibited”. The “rise in AST in the plasma” value with male rat of SD strain (FIG. 3) was “significantly inhibited”. Further, in experiment [1], the “inhibition of the production of TNFα” value is “inhibited the production of TNFα in a considerably strong manner as compared with glycine”.

Values taken from US20040058993A1, “Inhibitor for the production of TNF alpha” (AJINOMOTO CO. INC., priority 2000, published 2004).
